# Assay results from patent US5387710A, “Ethanolamine derivatives having sympathomimetic and anti-pollakiuria activities” (Fujisawa Pharmaceutical Co., Ltd., priority 1992, dated 1995).
# Where a name gives a salt, the structure may show the parent alone.
# Columns and labels:
# [1] = system: isolated rat distal colon; assay: Effect on isolated rat distal colon (spontaneous contractions, organ bath); type: cell-based; conditions: 0.5 h, isolated distal colon strip of male SD rats, Tyrode solution 37° C., observed over 30 minutes
# Protocol: Effect on isolated rat distal colon:
# Male SD rats (180~230 g) were used. Animals were fasted for 24 hours prior to experiment. Distal colon was removed immediately after sacrifice and placed in an organ bath containing 25 ml Tyrode solution aerating with 95% O2, 5% CO2 at 37° C. The strip was mounted under 0.5 g tension and spontaneous contractions were recorded isometrically. After the mobility was of a uniform size, test compound was added to an organ bath and the contractions were observed over a 30 minutes period. Effect of test compound was calculated by comparing contractions before and after test compound.
# [2] = system: isolated non-pregnant rat uterus; assay: Effect on isolated non-pregnant rat uterus (spontaneous contractions, organ bath); type: cell-based; conditions: 20 min, isolated uterine horn strip of estradiol-treated female SD rats, Locke solution 37° C., observed over 20 minutes
# Protocol: Effect on isolated non-pregnant rat uterus:
# Female SD rats (150~180 g) were used. 48 and 24 hours prior to use, rats were given estradiol (ovahormon benzoat: Trademark, Teikoku Hormone Mfg. Co., Ltd.) subcutaneously at a dose of 40 μg/rat to induce oestrus. The animals were killed and uterine horns were removed. Each strip was placed in an organ bath containing 25 ml Locke solution aerating with 95% O2, 5% CO2 at 37° C. under 1 g tension. Contractions were recorded isometrically. After the spontaneous contractions were of a uniform size, test compound was added to organ bath. The motility was observed over a 20 minutes period. Effect of test compound was calculated by comparing contractions before and after test compound.
SMILES,IC50 [1] [nM],IC50 [2] [nM]
"CCOC(=O)COc1ccc2c(c1)CC(NC[C@H](O)c1cccc(Cl)c1)CCC2 (mixture of isomers) [Example 1, (1R,6'R)- and (1R,6'S)-2-[(3-ethoxycarbonyl-methoxy-6,7,8,9-tetrahydro-5H-benzocyclohepten-6-yl)amino]-1-(3-chlorophenyl)ethanol hydrochloride]",0.68,200
"CCOC(=O)COc1ccc2c(c1)C[C@@H](NC[C@H](O)c1cccc(Cl)c1)CCC2 [2-3), (1R,6'S)-2-[(3-Ethoxycarbonylmethoxy-6,7,8,9-tetrahydro-5H-benzocyclohepten-6-yl)amino]-1-(3-chlorophenyl)ethanol hydrochloride]",0.84,440
"CCOC(=O)COc1ccc2c(c1)C[C@H](NC[C@H](O)c1cccc(Cl)c1)CCC2 [3-2), (1R,6'R)-2-[(3-Ethoxycarbonylmethoxy-6,7,8,9-tetrahydro-5H-benzocyclohepten-6-yl)amino]-1-(3-chlorophenyl)ethanol]",0.66,240
